# How the values were obtained:
# Type in all cases: in vivo
# Echinochloa crus galli = assay: greenhouse herbicidal test, post-emergence treatment; settings: 0.125 or 0.0625 kg/ha (of a.s.), Echinochloa crus galli (barnyardgrass)
# From the text: (§1) The culture containers used were plastic flowerpots containing loamy soil with approximately 3.0% of humus as the substrate. The seeds of the test plants were sown separately for each species.
# (§2) For the post-emergence treatment, the test plants were first grown to a plant height of 3 to 15 cm, depending on the plant habit, and only then treated with the active compounds which had been suspended or emulsified in water. The test plants for this purpose were either sown directly and grown in the same containers, or they were first grown separately as seedlings and transplanted into the test containers a few days prior to treatment. The rate of application for the post-emergence treatment was 0.125.or 0.0625 kg/ha of a.s. (active substance).
# (§3) Depending on the species, the plants were kept at 10-25° C. or 20-35° C. The test period extended over 2 to 4 weeks. During this time, the plants were tended, and their response to the individual treatments was evaluated.
# (§4) Evaluation was carried out using a scale from 0 to 100. 100 means no emergence of the plants, or complete destruction of at least the aerial parts, and 0 means no damage, or normal course of growth.
# (§5) The plants used in the greenhouse experiments belonged to the following species: […]
# Chenopodium album = assay: as above; settings: 0.125 or 0.0625 kg/ha (of a.s.), Chenopodium album (lambsquarters)
# From the text: as §1, §2, §3, §4, §5
# Sinapis alba = assay: as above; settings: 0.125 or 0.0625 kg/ha (of a.s.), Sinapis alba (white mustard)
# From the text: as §1, §2, §3, §4, §5
# Zea mays = assay: greenhouse test, post-emergence treatment, crop tolerance; settings: 0.125 or 0.0625 kg/ha (of a.s.)
# From the text: as §1, §2, §3, §4, §5
smiles,measurement,setting,value
"CCON=Cc1c(S(C)(=O)=O)ccc(C(=O)C2C(=O)CC(C)(C)CC2=O)c1Cl [Compound 2.07, 2-(2-Chloro-3-ethoxyiminomethyl-4-methylsulfonylbenzoyl)-5,5-dimethyl-1,3-cyclohexanedione]",herbicidal activity against harmful plants,Echinochloa crus galli,very good activity
same,herbicidal activity against harmful plants,Chenopodium album,very good activity
same,herbicidal activity against harmful plants,Sinapis alba,very good activity
same,tolerance in crop plant maize,Zea mays,well tolerated

# From patent publication US6576596B1, “Substituted 2-benzoyl-cyclohexan-1,3-diones with herbicidal effect” (BASF Aktiengesellschaft, priority 1997, dated 2003)
